What is called IC50 is the concentration at which inhibition is half-maximal. A higher IC50 goes with lower potency. For orientation: solubility means the dissolved amount per volume that the medium holds.

Values after ≈ are worked out from the molar mass of the structure shown.

The subject of data set [1] is BT474 (human breast carcinoma). Briefly: Methylene Blue Growth Inhibition Assay. It is filed as cell-based. The settings on record: BT-474, 72 h, BT474, 3 days. The protocol:
(§1) Tumor cell lines used in this assay were BT474 (human breast carcinoma) and LNCaP (lymph node metastasis of prostate cancer). HFF (normal human foreskin fibroblast) was also included. All cell lines were cultured in RPMI 1640 media (Invitrogen Corporation 22400-071) containing 10% Fetal Bovine Serum (FBS) at 37° C. in a humidified 5% CO2 incubator. Cells were harvested using trypsin/EDTA, counted using a hemacytometer and plated in 96-well tissue culture plates (Costar 35-3075), 100 uL per well, at the following densities: BT474 15,000 cells/well, LNCaP 5,000 cells/well and HFF 5,000 cells/well. 10 mM stocks of compounds in DMSO were serially diluted in DMSO through nine 3-fold dilutions in 96-well plates (Costar Corning 3363), and stored at −80C. The next day, compound dilutions were thawed and 4 uL of each transferred to 662 uL RPMI 1640+100 ug/mL gentamicin, resulting in twice the final required test concentrations. 100 uL of compounds diluted in RPMI 1640 were added to all cell lines. The final concentration of DMSO in all wells, including controls, was 0.3%. Cells were incubated at 37C, 5% CO2 for 3 days. Medium was removed by aspiration. Cell biomass was estimated by staining cells with 80 uL methylene blue (Sigma M9140, 0.5% in 50:50 ethanol:water), and incubating at room temperature for 1 hour. Stain was aspirated and the plates rinsed by immersion in water, then air-dried. Stain was released from cells by adding 100 uL of solubilizing solution (1% N-lauroyl sarcosine, sodium salt, Sigma L5125, in PBS) and incubating at room temperature for at least 30 minutes. Plates were shaken and the optical density at 620 nm was measured on a microplate reader. Percent inhibition of cell growth was calculated relative to vehicle-treated control wells. Concentration of compound that inhibits 50% of cell growth (IC50) was interpolated using non-linear regression (Levenberg-Marquadt) and the equation, y=Vmax*(1−(x̂n/K̂n+x̂n)))+Y2. [Ref: Mager, M. E. (1972) Data Analysis in Biochemistry and Biophysics. New York: Academic Press]

The test system of data set [2] is HFF (normal human foreskin fibroblast). Briefly: Methylene Blue Growth Inhibition Assay. Type of data set: cell-based. The note with it: 72 h, 3 days. The protocol:
as §1

For data set [3], the system named is LNCaP (lymph node metastasis of prostate cancer). Description: Methylene Blue Growth Inhibition Assay. Type of data set: cell-based. The settings on record: Homo sapiens, 72 h, 3 days. How it is done:
as §1

Data set [4] is described as follows: Solubility in 50 mM phosphate buffer at pH 7.4. It is filed as physicochemical. The settings on record: aqueous buffer.

Turning to `CCn1c(-c2nonc2N)nc2c(C#CC(C)(C)O)ncc(OC[C@@H](C)CNC3CC3)c21` [Example 6, 4-(2-(4-amino-1,2,5-oxadiazol-3-yl)-7-{[(2S)-3-(cyclopropylamino)-2-methylpropyl]oxy}-1-ethyl-1H-imidazo[4,5-c]pyridin-4-yl)-2-methyl-3-butyn-2-ol], the 50% inhibitory concentration (IC50) in data set [1] is 0.593 µM; in data set [2] it was 11.5 µM; in data set [3] it was 0.066 µM. The solubility in data set [4] was 27 µM (≈ 11.9 µg/mL).

As to `CCCC(CCN)Oc1cnc(C#CC(C)(C)O)c2nc(-c3nonc3N)n(CC)c12` (stereo not drawn) [Example 16, 4-[7-{[1-(2-aminoethyl)butyl]oxy}-2-(4-amino-1,2,5-oxadiazol-3-yl)-1-ethyl-1H-imidazo[4,5-c]pyridin-4-yl]-2-methyl-3-butyn-2-ol], the IC50 in data set [1] stood at 0.192 µM; in data set [2], 1.08 µM; in data set [3] it was 0.007 µM. The molecule further showed a solubility in data set [4] of 179 µM (≈ 76.5 µg/mL).

Consider `CCn1c(-c2nonc2N)nc2c(C#CC(C)(C)O)ncc(OCC[C@@H](N)C(C)C)c21` [Example 4, 4-[7-{[(3R)-3-amino-4-methylpentyl]oxy}-2-(4-amino-1,2,5-oxadiazol-3-yl)-1-ethyl-1H-imidazo[4,5-c]pyridin-4-yl]-2-methyl-3-butyn-2-ol], for which the IC50 was determined as 0.171 µM in data set [1], 8.1 µM in data set [2] and 0.036 µM in data set [3]. Also, the solubility in data set [4] came out at 206 µM (≈ 88.1 µg/mL).

Turning to `CCn1c(-c2nonc2N)nc2c(-c3ccccc3)ncc(OCCN3CCOCC3)c21` [Compound T, 4-(1-ethyl-7-([2-(4-morpholinyl)ethyl]oxy)-4-phenyl-1H-imidazo[4,5-c]pyridin-2-yl)-1,2,5-oxadiazol-3-amine, reference compound], in data set [2], the IC50 was determined as 18.9 µM. That is a double-digit micromolar value.

`CCn1c(-c2nonc2N)nc2c(-c3ccccc3)ncc(OCC3CCCNC3)c21` (stereo not drawn) [Compound V, 4-{1-ethyl-4-phenyl-7-[(3-piperidinylmethyl)oxy]-1H-imidazo-[4,5-c]pyridin-2-yl}-1,2,5-oxadiazol-3-amine, reference compound] displayed a 50% inhibitory concentration (IC50) in data set [2] of 0.57 µM.

With `CCCC(CN)COc1cnc(C#CC(C)(C)O)c2nc(-c3nonc3N)n(CC)c12` (stereo not drawn) [Example 11, 4-[7-{[2-(aminomethyl)pentyl]oxy}-2-(4-amino-1,2,5-oxadiazol-3-yl)-1-ethyl-1H-imidazo[4,5-c]pyridin-4-yl]-2-methyl-3-butyn-2-ol], the IC50 is 0.225 µM in data set [1], 15 µM in data set [2] and 0.057 µM in data set [3]. In data set [4], this molecule returned a solubility of 203 µM (≈ 86.8 µg/mL).

`CCn1c(-c2nonc2N)nc2c(C#CC(C)(C)O)ncc(OCC(C)(C)CN)c21` [Example 7, 4-[7-[(3-amino-2,2-dimethylpropyl)oxy]-2-(4-amino-1,2,5-oxadiazol-3-yl)-1-ethyl-1H-imidazo[4,5-c]pyridin-4-yl]-2-methyl-3-butyn-2-ol]: the figures for the IC50 in data set [1], in data set [2] and in data set [3] were 0.137 µM, 26.2 µM and 0.031 µM, respectively. The molecule further came in with a solubility in data set [4] of 209 µM (≈ 86.4 µg/mL).

In data set [2], `CCn1c(-c2nonc2N)nc2c(-c3ccccc3)ncc(OCCCN3CCOCC3)c21` [Compound R, 4-(1-ethyl-7-{[3-(4-morpholinyl)propyl]oxy}-4-phenyl-1H-imidazo[4,5-c]pyridin-2-yl)-1,2,5-oxadiazol-3-amine, reference compound] gave an IC50 of 19.9 µM. In other words, the double-digit micromolar range.

For `CCn1c(-c2nonc2N)nc2c(C#CC(C)(C)O)ncc(OCCCNC3CCC3)c21` [Example 5, 4-(2-(4-amino-1,2,5-oxadiazol-3-yl)-7-{[3-(cyclobutylamino)propyl]oxy}-1-ethyl-1H-imidazo[4,5-c]pyridin-4-yl)-2-methyl-3-butyn-2-ol], the results for the 50% inhibitory concentration (IC50) in data set [1], in data set [2] and in data set [3] were 0.508 µM, 25.9 µM and 0.058 µM, respectively. This molecule also came in with a solubility in data set [4] of 86 µM (≈ 37.8 µg/mL).

`CCCCC(CN)COc1cnc(C#CC(C)(C)O)c2nc(-c3nonc3N)n(CC)c12` (stereo not drawn) [Example 13, 4-[7-{[2-(aminomethyl)hexyl]oxy}-2-(4-amino-1,2,5-oxadiazol-3-yl)-1-ethyl-1H-imidazo[4,5-c]pyridin-4-yl]-2-methyl-3-butyn-2-ol]: the results for the half-inhibitory concentration (IC50) in data set [1], in data set [2] and in data set [3] were 0.088 µM, 6.65 µM and 0.032 µM, respectively. The concentration in solution in data set [4] (solubility) was 108 µM (≈ 47.7 µg/mL).

As for `CCn1c(-c2nonc2N)nc2c(C#CC(C)(C)O)ncc(OCC(CN)CC(C)C)c21` (stereo not drawn) [Example 12, 4-[7-{[2-(aminomethyl)-4-methylpentyl]oxy}-2-(4-amino-1,2,5-oxadiazol-3-yl)-1-ethyl-1H-imidazo[4,5-c]pyridin-4-yl]-2-methyl-3-butyn-2-ol], the half-maximal inhibitory concentration (IC50) in data set [1] was 0.556 µM; in data set [2], 26.4 µM; in data set [3], 0.081 µM. In addition, the concentration in solution in data set [4] (solubility) was 164 µM (≈ 72.4 µg/mL).

Molecule `CCn1c(-c2nonc2N)nc2c(C#CC(C)(C)O)ncc(OCCCCN)c21` [Compound W, 4-[7-[(4-aminobutyl)oxy]-2-(4-amino-1,2,5-oxadiazol-3-yl)-1-ethyl-1H-imidazo[4,5-c]pyridin-4-yl}-2-methyl-3-butyn-2-ol, reference compound] yielded a half-maximal inhibitory concentration (IC50) in data set [2] of 22.1 µM.

Molecule `CCn1c(-c2nonc2N)nc2c(C#CC(C)(C)O)ncc(OCCCNCCc3ccc(OC)cc3)c21` [Compound Z, 4-(2-(4-amino-1,2,5-oxadiazol-3-yl)-1-ethyl-7-{[3-({2-[4-(methyloxy)phenyl]ethyl}amino)propyl]oxy}-1H-imidazo[4,5-c]pyridin-4-yl)-2-methyl-3-butyn-2-ol, reference compound] yielded an IC50 in data set [2] of 5.51 µM. Compared with the last molecule, the IC50 is about 4-fold lower.

Consider `CCn1c(-c2nonc2N)nc2c(C#CC(C)(C)O)ncc(OCCCNC3CCCC3)c21` [Example 3, 4-(2-(4-amino-1,2,5-oxadiazol-3-yl)-7-{[3-(cyclopentylamino)propyl]oxy}-1-ethyl-1H-imidazo[4,5-c]pyridin-4-yl)-2-methyl-3-butyn-2-ol], for which the IC50 in data set [1] was 0.295 µM; in data set [2], > 30 µM; in data set [3], 0.052 µM. The concentration in solution in data set [4] (solubility) was 210 µM (≈ 95.2 µg/mL).

Take `CCn1c(-c2nonc2N)nc2c(-c3ccccc3)ncc(OCC(O)CN3CCOCC3)c21` (stereo not drawn) [Compound S, 1-{[2-(4-amino-1,2,5-oxadiazol-3-yl)-1-ethyl-4-phenyl-1H-imidazo[4,5-c]pyridin-7-yl]oxy}-3-(4-morpholinyl)-2-propanol, reference compound]: the 50% inhibitory concentration (IC50) in data set [2] is > 30 µM.

Regarding `CCn1c(-c2nonc2N)nc2c(C#CC(C)(C)O)ncc(OCCCN)c21` [Compound X, 4-{2-(4-amino-1,2,5-oxadiazol-3-yl)-7-[(3-aminopropyl)oxy]-1-ethyl-1H-imidazo[4,5-c]pyridin-4-yl}-2-methyl-3-butyn-2-ol, reference compound], the 50% inhibitory concentration (IC50) in data set [2] turned out to be 18.1 µM.

Regarding `CCn1c(-c2nonc2N)nc2c(C#CC(C)(C)O)ncc(OC[C@@H](C)CN)c21` [Example 8, 4-[7-{[(2S)-3-amino-2-methylpropyl]oxy}-2-(4-amino-1,2,5-oxadiazol-3-yl)-1-ethyl-1H-imidazo[4,5-c]pyridin-4-yl]-2-methyl-3-butyn-2-ol], the IC50 in data set [1] was found to be 0.202 µM; in data set [2], 22.4 µM; in data set [3], 0.053 µM. In data set [4], this molecule registered a solubility of 141 µM (≈ 56.3 µg/mL).

`CCn1c(-c2nonc2N)nc2c(C#CC(C)(C)O)ncc(OC(CCN)C3CCCCC3)c21` (stereo not drawn) [Example 18, 4-[7-[(3-amino-1-cyclohexylpropyl)oxy]-2-(4-amino-1,2,5-oxadiazol-3-yl)-1-ethyl-1H-imidazo[4,5-c]pyridin-4-yl]-2-methyl-3-butyn-2-ol]: the IC50 turned out to be 0.051 µM in data set [1], 3.21 µM in data set [2] and 0.061 µM in data set [3]. In addition, the solubility in data set [4] amounted to 112 µM (≈ 52.4 µg/mL).

In the case of `CCn1c(-c2nonc2N)nc2c(C#CC(C)(C)O)ncc(OCC[C@H](C)N)c21` [Example 9, 4-[7-{[(3S)-3-aminobutyl]oxy}-2-(4-amino-1,2,5-oxadiazol-3-yl)-1-ethyl-1H-imidazo[4,5-c]pyridin-4-yl]-2-methyl-3-butyn-2-ol], the half-maximal inhibitory concentration (IC50) in data set [1] came out at 0.504 µM; in data set [2], 14.5 µM; in data set [3] it was 0.071 µM. Also, the solubility in data set [4] is 119 µM (≈ 47.5 µg/mL).

Turning to `CCn1c(-c2nonc2N)nc2c(C#CC(C)(C)O)ncc(OCC3CCNCC3)c21` [Compound Y, 4-{2-(4-amino-1,2,5-oxadiazol-3-yl)-1-ethyl-7-[(4-piperidinylmethyl)oxy]-1H-imidazo[4,5-c]pyridin-4-yl}-2-methyl-3-butyn-2-ol, reference compound], the 50% inhibitory concentration (IC50) in data set [2] is > 30 µM.

`CCn1c(-c2nonc2N)nc2cncc(OC3CCNCC3)c21` [Compound U, 4-[1-ethyl-7-(piperidin-4-yloxy)-1H-imidazo[4,5-c]pyridine-2-yl]-furazan-3-ylamine, reference compound] displayed an IC50 in data set [2] of 6.47 µM.

The values are drawn from patent US20090227616A1, “INHIBITORS OF AKT ACTIVITY” (SMITHKLINE BEECHAM CORPORATION, a corporation, priority 2005, published 2009).
